Data reported in patent US20230310388A1, “Methods and Compositions for Treating Fungal Infections” (Neoculi Pty Ltd, priority 2020, published 2023).
Where “and” joins values, the source holds several entries; their conditions need not be identical. Equal values may be shown once.

Columns and labels:
Candida albicans [1] = test: CLSI broth microdilution MIC (Example 5); type: cell-based
Description: (§1) Antifungal minimum inhibitory concentration (MIC) testing was undertaken as recommended by the CLSI. Briefly, antifungal susceptibility tests were performed for amphotericin B, robenidine (NCL812) and robenidine analogs (NCL23, NCL24, NCL97, NCL113, NCL115, NCL195, NCL219, NCL220, NCL259, NCL265) by standard broth microdilution method (CLSI) in RPMI 1640. Various concentrations (ranging from high to low) of the selected compounds were prepared in RPMI 1640 medium by double dilution in 96-well microtitre plates. Each well contained an inoculum of approximately 2×10^3 cells/mL. The wells without addition of drugs served as negative (no inoculum) and positive (inoculum only) growth controls. Microtitre plates were incubated at 35° C. for 24-48 hours. […] Antifungal MICs were determined for each isolate in duplicate; if the values obtained were different, the MIC test was repeated a third time.

Cryptococcus neoformans [2] = test: CLSI broth microdilution MIC (Example 5); type: cell-based
Description: as §1

Candida albicans [3] = test: CLSI broth microdilution MIC (Example 4); type: cell-based; conditions: for antifungal activity against the two isolates of Candida albicans: summary in words
Description: (§2) Antifungal minimum inhibitory concentration (MIC) testing was undertaken as recommended by the CLSI. Briefly, antifungal susceptibility tests were performed for amphotericin B, robenidine (NCL812) and robenidine (NCL) analogs (NCL004, NCL020, NCL023, NCL024, NCL062, NCL094, NCL097, NCL110, NCL113, NCL114, NCL115, NCL135, NCL139, NCL180, NCL181, NCL195, NCL219, NCL220, NCL228, NCL247, NCL250, NCL259, NCL260, NCL263, NCL265, NCL269, NCL274) by standard broth microdilution method (CLSI) in RPMI 1640. Various concentrations (ranging from high to low) of the selected compounds were prepared in RPMI 1640 medium by double dilution in 96-well microtitre plates. Each well contained an inoculum of approximately 2×10^3 cells/mL. The wells without addition of drugs served as negative (no inoculum) and positive (inoculum only) growth controls. Microtitre plates were incubated at 35° C. for 24-48 hours. […] Antifungal MICs were determined for each isolate in duplicate; if the values obtained were different, the MIC test was repeated a third time.

Cryptococcus neoformans [4] = test: CLSI broth microdilution MIC (Example 4); type: cell-based
Description: as §2

[5] = system: Candida albicans ATCC14053; test: Broth micro-dilution screen at 16 μg/mL and MIC (Example 9); type: cell-based; conditions: for MIC: C. albicans ATCC14053, test range 0.25-64 μg/mL, duplicate; for Screen at 16 μg/mL: single concentration 16 μg/mL, Growth or No growth of C. albicans ATCC14053
Description: The antifungal activity of 201 NCL analogs against Candida albicans ATCC14053 in vitro was investigated. A broth micro-dilution method was used, according to CLSI guidelines as described. NCL analogs were dissolved in DMSO and originally screened at a single concentration of 16 μg/mL.

Candida albicans [6] = test: CLSI broth microdilution MIC (Example 6); type: cell-based
Description: (§3) Antifungal minimum inhibitory concentration (MIC) testing was undertaken as recommended by the CLSI (1). Briefly, antifungal susceptibility tests were performed for amphotericin B, robenidine (NCL812) and 10 robenidine analogs (NCL023, NCL024, NCL097, NCL113, NCL115, NCL195, NCL219, NCL220, NCL259, NCL265) by standard broth microdilution method (CLSI) in RPMI 1640. Various concentrations (ranging from high to low) of the selected compounds were prepared in RPMI 1640 medium by double dilution in 96-well microtitre plates. Each well contained an inoculum of approximately 2×10^3 cells/mL. The wells without addition of drugs served as negative (no inoculum) and positive (inoculum only) growth controls. Microtitre plates were incubated at 35° C. for 24-48 hours. […] Antifungal MICs were determined for each isolate in duplicate; if the values obtained were different, the MIC test was repeated a third time.

Cryptococcus neoformans [7] = test: CLSI broth microdilution MIC (Example 6); type: cell-based
Description: as §3

C. gattii = test: CLSI broth microdilution MIC (Example 6); type: cell-based, Cryptococcus gattii
Description: as §3

[8] = clinical isolate C. albicans 12-93301752 Azole Resistant
[9] = clinical isolate C. albicans 14-90045999 Azole Resistant
[10] = clinical isolate C. albicans 15-45171061
[11] = clinical isolate C. albicans 15-91329871
[12] = clinical isolate C. albicans 16-24136919 Azole Resistant
[13] = clinical isolate C. albicans 16-46177400
[14] = clinical isolate C. albicans 16-90050810
[15] = clinical isolate C. albicans 16-90054237
[16] = clinical isolate C. albicans 18-144-00196
[17] = clinical isolate C. albicans 18-148-08188 Azole Resistant
[18] = human clinical isolate C. neoformans serotype A/D hybrid
[19] = human clinical isolate C. neoformans var grubii 16-90050434
[20] = human clinical isolate C. neoformans var grubii 17-90028233
[21] = human clinical isolate C. neoformans var grubii 17-93996464
[22] = human clinical isolate C. neoformans var grubii 17-93996964
[23] = human clinical isolate C. gatti 17-90232099
[24] = human clinical isolate C. gattii 16-90050373
[25] = human clinical isolate C. gattii 17-90028211
[26] = human clinical isolate C. gattii 17-90028217
[27] = human clinical isolate C. gattii 17-90028242

Structure (SMILES) | MIC (Candida albicans [1]; C. albicans SA3) | MIC (Candida albicans [1]; Candida albicans ATCC 90028) | MIC (Candida albicans [1]; [8]) | MIC (Candida albicans [1]; [9]) | MIC (Candida albicans [1]; [10]) | MIC (Candida albicans [1]; [11]) | MIC (Candida albicans [1]; [12]) | MIC (Candida albicans [1]; [13]) | MIC (Candida albicans [1]; [14]) | MIC (Candida albicans [1]; [15]) | MIC (Candida albicans [1]; [16]) | MIC (Candida albicans [1]; [17]) | activity against one or more isolates of Cryptococcus neoformans and Candida albicans (Candida albicans [1]; summary in words) | MIC (Cryptococcus neoformans [2]; Cryptococcus neoformans SA1) | MIC (Cryptococcus neoformans [2]; Cryptococcus neoformans SA2) | MIC at 24-48 hours (Candida albicans [3]; Candida albicans ATCC 90028) | MIC at 24-48 hours (Candida albicans [3]; Candida albicans SA3) | MIC at 24-48 hours (Cryptococcus neoformans [4]; Cryptococcus neoformans SA1) | MIC at 24-48 hours (Cryptococcus neoformans [4]; Cryptococcus neoformans SA2) | Screen at 16 μg/mL [5] | other results
Cl.N=C(NN=Cc1cccc(F)c1)NN=Cc1cccc(F)c1 [NCL023] | 32 µg/mL | 32 µg/mL | 16 µg/mL | >16 µg/mL | 16 µg/mL | 16 µg/mL | 8 µg/mL | >16 µg/mL | >16 µg/mL | 16 µg/mL | 16 µg/mL | 16 µg/mL | highly active | 16 µg/mL | 16 µg/mL | 32 µg/mL | 32 µg/mL | 16 µg/mL | 16 µg/mL | No growth | antifungal activity against the two isolates of Candida albicans (Candida albicans [3]): high antifungal activity; MIC [5]: 8 µg/mL and 16 µg/mL; MIC (Candida albicans [6]; C. albicans SA3): 32 µg/mL; MIC (Candida albicans [6]; Candida albicans ATCC 90028): 32 µg/mL; MIC (Cryptococcus neoformans [7]; Cryptococcus neoformans SA1): 16 µg/mL; MIC (Cryptococcus neoformans [7]; Cryptococcus neoformans SA2): 16 µg/mL; MIC (Cryptococcus neoformans [7]; [18]): 8 µg/mL; MIC (Cryptococcus neoformans [7]; [19]): 8 µg/mL; MIC (Cryptococcus neoformans [7]; [20]): 8 µg/mL; MIC (Cryptococcus neoformans [7]; [21]): 8 µg/mL; MIC (Cryptococcus neoformans [7]; [22]): 8 µg/mL; MIC (C. gattii; [23]): 8 µg/mL; MIC (C. gattii; [24]): 8 µg/mL; MIC (C. gattii; [25]): 16 µg/mL; MIC (C. gattii; [26]): 16 µg/mL; MIC (C. gattii; [27]): 8 µg/mL
Cl.N#Cc1ccc(C=NNC(=N)NN=Cc2ccc(C#N)cc2)cc1 [NCL024] | >32 µg/mL | >32 µg/mL | 8 µg/mL | 4 µg/mL | 16 µg/mL | >16 µg/mL | 8 µg/mL | >16 µg/mL | >16 µg/mL | 4 µg/mL | 16 µg/mL | >16 µg/mL | highly active | >32 µg/mL | 32 µg/mL | >32 µg/mL | >32 µg/mL | >32 µg/mL | 32 µg/mL | Growth | MIC (Candida albicans [6]; C. albicans SA3): >32 µg/mL; MIC (Candida albicans [6]; Candida albicans ATCC 90028): >32 µg/mL; MIC (Cryptococcus neoformans [7]; Cryptococcus neoformans SA1): >32 µg/mL; MIC (Cryptococcus neoformans [7]; Cryptococcus neoformans SA2): 32 µg/mL; MIC (Cryptococcus neoformans [7]; [18]): 32 µg/mL; MIC (Cryptococcus neoformans [7]; [19]): 32 µg/mL; MIC (Cryptococcus neoformans [7]; [20]): 16 µg/mL; MIC (Cryptococcus neoformans [7]; [21]): 32 µg/mL; MIC (Cryptococcus neoformans [7]; [22]): 32 µg/mL; MIC (C. gattii; [23]): 32 µg/mL; MIC (C. gattii; [24]): 16 µg/mL; MIC (C. gattii; [25]): 8 µg/mL; MIC (C. gattii; [26]): 32 µg/mL; MIC (C. gattii; [27]): 32 µg/mL
Cl.N=C(NN=Cc1cc(O)c(O)c(O)c1)NN=Cc1cc(O)c(O)c(O)c1 [NCL097] | 8 µg/mL | 32 µg/mL | 8 µg/mL | 8 µg/mL | 4 µg/mL | 8 µg/mL | 4 to 8 µg/mL | 8 µg/mL | 8 µg/mL | 4 µg/mL | 8 to 16 µg/mL | 8 µg/mL | highly active | 16 µg/mL | 16 µg/mL | 32 µg/mL | 8 µg/mL | 16 µg/mL | 16 µg/mL | No growth | activity against all tested isolates of Cryptococcus neoformans and Candida albicans (Candida albicans [1]; summary in words): active; antifungal activity against the two isolates of Candida albicans (Candida albicans [3]): high antifungal activity; MIC [5]: 0.5 µg/mL; MIC (Candida albicans [6]; C. albicans SA3): 8 µg/mL; MIC (Candida albicans [6]; Candida albicans ATCC 90028): 32 µg/mL; MIC (Cryptococcus neoformans [7]; Cryptococcus neoformans SA1): 16 µg/mL; MIC (Cryptococcus neoformans [7]; Cryptococcus neoformans SA2): 16 µg/mL; MIC (Cryptococcus neoformans [7]; human clinical isolate C. neoformans serotype A/D hybrid, listed as NCL97): 16 µg/mL and 32 µg/mL; MIC (Cryptococcus neoformans [7]; [19]): 16 to 32 µg/mL; MIC (Cryptococcus neoformans [7]; [20]): 32 µg/mL; MIC (Cryptococcus neoformans [7]; [21]): 32 µg/mL; MIC (Cryptococcus neoformans [7]; [22]): 32 µg/mL; MIC (C. gattii; [23]): 32 µg/mL; MIC (C. gattii; [24]): 16 µg/mL; MIC (C. gattii; [25]): 16 µg/mL; MIC (C. gattii; [26]): 32 µg/mL; MIC (C. gattii; [27]): 32 µg/mL
